Laboratory results: patent US20040002117A1 (priority 1998, published 2004)

Key:
calcineurin = calcineurin (Homo sapiens, UniProt Q08209, L343A/M347D/Y341S); assay: 1H NMR titration spectroscopy binding experiments; conditions: 10 μM compound, 20 μM calcineurin, 25° C., buffered D2O
Protocol: T2-filtered ^1H NMR spectra were obtained on a Bruker Avance 600 instrument with CryoPhobe using low-power presaturation of residual water. Preacquisition delays included up to five spin echos to suppress fast-relaxing broad protein resonances and were times to yield in-phase signals for J-coupled spins. Chemical shifts were referenced to internal standard 5 μM 2,2-dimethylsilapentane-5-sulfonic acid (DSS).

[1] = tested on: NFAT dephosphorylation by calcineurin in C1.7W2 T cells; assay: ionomycin-induced NFAT dephosphorylation in C1.7W2 T cells, Western blot; format: cell-based, murine; conditions: 1 μM ionomycin 15 min
Protocol: For the dephosphorylation assay, C1.7W2 T cells were pretreated in Dulbecco's modified Eagle medium, supplemented with 10% fetal calf serum, 10 mM HEPES, and 2 mM glutamine, at 37 C. with INCA6 (5-40 μM) for 10 min, then stimulated for an additional 15 min with 1 μM ionomycin in the continued presence of inhibitor. Control incubations omitted INCA6, ionomycin, or both. DMSO was present at equal concentrations in all incubations. Cells were collected by centrifugation and lysed in Laemmli sample buffer. Samples were analyzed by SDS-polyacrylamide gel electrophoresis according to Laemmli (U K Laemmli (1970) Nature 227, 680-685) using a 6% separating gel, transferred to nitrocellulose membrane, and probed with an antiserum to NFAT1.

[2] = tested on: nuclear import of NFAT in C1.7W2 T cells; assay: NFAT1 immune staining assay, nuclear import in C1.7W2 T cells; format: cell-based, murine; conditions: INCA6 20 μM or 40 μM; CsA/FK506 1 μM/100 nM; 1 μM ionomycin 15 min
Protocol: For an immune staining assay, C1.7W2 T cells growing on coverslips in Dulbecco's modified Eagle medium, supplemented with 10% fetal calf serum, 10 mM HEPES, and 2 mM glutamine, at 37 C. were pretreated with medium alone, with INCA6 (20 μM or 40 μM), or with CsA/FK506 (1 μM/100 nM) for 10 min, then stimulated for an additional 15 min with 1 μM ionomycin, in medium alone or in the continued presence of inhibitor as appropriate. Medium was removed, and the cells were fixed, permeabilized, and stained using the anti-67.1 antiserum against NFAT1 (A Ho et al (1994) J Biol Chem 269, 28181-28186) and a fluorescent second antibody.

[3] = biological target: T1, recombinant human calcineurin catalytic domain, calcineurin(2-347) (Homo sapiens, UniProt Q08209, L343A/M347D/Y341S); assay: fluorescence polarization competition assay, displacement of OG-VIVIT from calcineurin; format: binding
T1 construct: GST (N, cleaved yes); made in house; host or cells: E. coli strain DH5α
Protocol: Samples were analyzed as described in the preceding paragraph, and the resulting polarization data were plotted against the concentration of unlabelled VIVIT peptide, as shown in FIG. 8B.
The library stocks were dissolved at a nominal concentration of 10 mM in DMSO, and formatted for convenient robotic transfer on 384-well plates at the Institute of Chemistry and Cell Biology, Harvard Medical School. To initiate the competition assay, 40 nl volumes were pin-transferred from each well of a library stock plate to the corresponding wells of an assay plate, utilizing a robotic device. After a minimum 10 min incubation at room temperature to allow the binding to reach equilibrium, fluorescence polarization data were collected employing an Analyst plate reader (Molecular Devices).
Stocks of candidate inhibitor compounds and their structural analogues were purchased from ChemBridge or Asinex. The structure and purity of individual compounds were verified by ^1H NMR, mass spectrometry, or thin-layer chromatography. […] INCA1, INCA2, and INCA6 can be represented generally as follows: […]

[4] = tested on: cytokine mRNAs in C1.7W2 T cells; assay: RNase protection assay of cytokine mRNAs in C1.7W2 T cells stimulated with PMA and ionomycin; format: cell-based, murine
Protocol: The effects of INCA6 on transcription were examined in the case of several cytokine mRNAs that are known targets of calcineurin-NFAT signalling. C1.7W2 T cells were preincubated for 10 min. in medium alone, in medium containing INCA6, or in medium containing CsA and FK506, then stimulated under conditions that normally initiate signalling through the calcium-calmodulin-calcineurin-NFAT pathway. Cells in control samples that had not been pretreated with inhibitor were left unstimulated, or were stimulated for 45 min with 20 nM PMA alone, or with 20 nM PMA and 1 μM ionomycin. Cells in parallel samples that had been pretreated for 10 min with inhibitor were then further incubated for 45 min without stimulation or with PMA and ionomycin, in the continued presence of inhibitor. At the end of the incubation, cells were harvested and total cellular RNA was extracted using Ultraspec RNA-binding resin (Biotecx Laboratories). Levels of cytokine mRNAs were analyzed by RNase protection assays performed with RiboQuant multiprobe kits (Pharmingen) following the instructions of the manufacturer. Briefly, for each sample 10 μg of target RNA was hybridized overnight to a ^32P-labelled RNA probe that had been synthesized in vitro from a template set representing multiple murine cytokine mRNAs, and then the unhybridized probe and other single-stranded RNAs were digested with RNases. The protected RNAs were purified, and probes for the individual cytokine mRNAs were resolved on a denaturing 6% polyacrylamide gel. Transcript levels were quantified by autoradiography and by use of a phosphorimager (Molecular Dynamics). Probes for the individual cytokine transcripts were identified by the length of the respective protected fragments. The results are presented in FIGS. 14A to 14C, which are pictures of RNA gel autoradiograms. Data were corrected for minor variations in RNA loading by normalizing the data for each sample to the intensity of the signal for the housekeeping transcripts L32 and GAPDH (see lower panels of FIGS. 14A, 14B, and 14C).

[5] = tested on: PMA-MAP kinase signalling pathway in C1.7W2 T cells; assay: phosphorylation of p44/p42 MAP kinase in PMA-stimulated C1.7W2 T cells; format: cell-based, murine; conditions: INCA6 pretreatment; 20 nM PMA 15 min
Protocol: Dephosphorylation of NFAT is evident in the shift of the stained NFAT band the sample from cells that were stimulated with ionomycin in the absence of inhibitor (FIG. 12A, lane 2). […] Activation of the latter pathway was monitored by examining phosphorylation of p44/p42 MAP kinase. For this assay the cells were pretreated and incubated as for the NFAT dephosphorylation assay, except that stimulation was for 15 min with 20 nM PMA. Cells were collected by centrifugation, lysed in Laemmli sample buffer, and analyzed by Western blotting with an anti-phospho-p44/p42 MAP kinase antibody (Cell Signaling Technology).

T1 sequence (Q08209 2-347 Y341S/L343A/M347D): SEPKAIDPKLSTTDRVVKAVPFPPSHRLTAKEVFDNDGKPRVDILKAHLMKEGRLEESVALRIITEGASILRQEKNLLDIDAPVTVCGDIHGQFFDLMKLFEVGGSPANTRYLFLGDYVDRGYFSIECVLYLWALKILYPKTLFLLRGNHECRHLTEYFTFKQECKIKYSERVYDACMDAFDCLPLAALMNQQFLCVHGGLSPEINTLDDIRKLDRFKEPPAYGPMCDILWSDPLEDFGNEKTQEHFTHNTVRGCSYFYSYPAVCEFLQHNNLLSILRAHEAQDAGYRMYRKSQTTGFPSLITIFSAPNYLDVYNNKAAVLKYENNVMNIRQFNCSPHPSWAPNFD
Sequence of calcineurin (Q08209 2-347 Y341S/L343A/M347D limits assumed): as the sequence (Q08209 2-347 Y341S/L343A/M347D) above

## O=C1C=CC(=O)C2=C1C1c3ccccc3C2c2ccccc21 [INCA6]
calcineurin
  binding to calcineurin in the absence of VIVIT peptide: direct molecular interaction
[1]; 10 μM INCA6
  blockade of NFAT dephosphorylation in cells: partial
[1]; 20 μM INCA6
  blockade of NFAT dephosphorylation in cells: nearly complete
[1]; 40 μM INCA6
  blockade of NFAT dephosphorylation in cells: total
[2]
  localization of NFAT immune staining in ionomycin-stimulated cells: localized to the cytoplasm
[3]
  Ki: 0.8 to 5 µM
[3]; at high concentrations, 1 μM calcineurin, 60 nM OG-VIVIT
  displacement of OG-VIVIT from calcineurin: complete
[3]; calcineurin-VIVIT peptide interaction, read-out: Estimated IC50
  IC50: 17 µM
[4]; 20 μM INCA6, 20 nM PMA and 1 μM ionomycin 45 min
  induction of GM-CSF mRNA: partially prevented
[4]; 20 μM INCA6, PMA and ionomycin
  induction of lymphotactin (Ltn), MIP1β, and MIP-1α mRNAs: partially blocked
[4]; 20 μM or 40 μM INCA6, CsA/FK506, PMA and ionomycin
  induction of TNFα mRNA: inhibited
[4]; 40 μM INCA6, CsA/FK506 1 μM/100 nM, PMA and ionomycin 45 min
  induction of GM-CSF mRNA: fully blocked
[4]; 40 μM INCA6, CsA/FK506, PMA and ionomycin
  induction of lymphotactin (Ltn), MIP1β, and MIP-1α mRNAs: fully blocked
[4]; INCA6, CsA/FK506, PMA and ionomycin
  induction of IFNγ mRNA: inhibited
[4]; not downstream targets of NFAT
  levels of TNFβ, RANTES, and IP-10 mRNAs: unaffected
[4]; unstimulated cells
  basal level of GM-CSF mRNA: not affected
[5]
  activation of the PMA-MAP kinase signalling pathway (phosphorylation of p44/p42 MAP kinase): not blocked
